Legend:
A2780wt cells = assay: MTT assay, A2780wt cells; type: cell-based; conditions: for IC50: MTT assay, 72 h exposure
Method: (§1) Carboplatin, a second‐generation platinum drug commonly used as part of standard first‐line chemotherapy for ovarian carcinoma, was examined as a reference compound due to its clinical relevance. Additionally, the nonmalignant bone marrow stromal cell line HS‐5 was included as a control to assess specificity of the complexes toward cancer cells.
(§2) Unloaded BGs (4 × 10^8 EcN or 2 × 10^8 Ec NM522, which is equivalent to the highest tested BG concentration) were tested as controls.
(§3) The exponentially growing cells were seeded at a density of 8 × 10^3 cells/well (A2780wt/cis) or 1 × 10^4 cells/well (HS‐5), respectively, into clear flat‐bottom 96‐well plates in triplicates. […] After another 72 h of incubation, the cellular metabolic activity was measured as an indicator of cell viability employing an MTT assay. Hereby, 20 µL of a 5 mg/mL MTT solution was added to each well, respectively. After 3 h of incubation, the medium was discarded, and the formazan crystals formed were dissolved in DMSO for 15 min with gentle shaking. […] The OD at 620 nm was subtracted from the OD at 595 nm. The OD of the medium was subtracted to exclude the unspecific staining caused by FCS‐containing medium. Cells treated with vehicle control (0.1% DMF) only were set at 100% metabolic activity. The IC50 values were calculated with Prism 8.0 (GraphPad Software Inc., Boston, MA, USA) using nonlinear regression. Significance was evaluated via a one sample t‐test performed with Prism 8.0.

A2780cis cells [1] = assay: MTT assay, A2780cis cells; type: cell-based; conditions: for Resistance factor RF = IC50(A2780cis)/IC50(A2780wt): 72 h; for IC50: 72 h exposure
Method: as §1, §2, §3

[2] = Stability in D2O (1H NMR); type: physicochemical; conditions: for behaviour in D2O (aquation): rt, up to 24 h
Method: Stability of the complexes 1–4 in CDCl3, CD3OD, CD3CN, DMF‐d7, and D2O was monitored by ^1H NMR spectroscopy at ambient temperature. Solutions of the complexes (approximately 3 mg/mL) were prepared in each solvent, and ¹H NMR spectra were recorded periodically over 24 h.

[3] = Stability in RPMI 1640 cell culture medium (HPLC‐MS); type: physicochemical; conditions: RPMI 1640 without FCS, 1 h incubation, extracted ion chromatograms
Method: Additional stability studies in aqueous media and RPMI 1640 (without FCS) were carried out using RP‐HPLC‐MS. For this purpose, 0.5 mM solutions of complexes 1 and 2 were prepared in Milli‐Q water and RPMI 1640. Samples were analyzed by HPLC‐MS immediately after preparation and at selected time points during 24 h of incubation at rt. HPLC‐MS measurements were performed on Agilent 1260 system hyphenated to an MS Single Quad detector from Agilent with ESI (LC‐MSD from Agilent Technologies, Santa Clara, CA, USA). As stationary phase, a Gemini C18 110 Å; 150 × 4.6 mm; 3.0 µm particles (Phenomenex Ltd.; Aschaffenburg, Germany) column was employed and equipped with a 4 × 3 mm guard column of the identical material. The mobile phase flow was set to 0.8 mL/min; and consisted of a mixture of water (solvent A) – MeOH (solvent B) using gradient elution (0 min 5% B; 3 min 5% B; 17 min 98% B; 20 min stop; post time 10 min). The oven temperature was maintained at 30°C and the MS analysis was performed with split flow 1:5 of the eluate in positive ionization mode (capillary voltage 4.5 kV; source temperature 320°C; dry gas 10 L/min; nebulizer gas pressure 30 psi, scan range m/z 50–1500). The injection volume of the sample solution (V sample) was set to 10 µL. Sample degradation was evaluated by integration of the extracted ion chromatograms at the indicated m/z ± 0.5 (based on the monoisotopic peaks).

[4] = system: caspase‐3 in A2780wt cells; assay: Caspase‐3 activity assay (ApoTox‐Glo), A2780wt; type: cell-based; conditions: w/o BGs, 25 µM, 24 h
Method: Furthermore, caspase‐3 activation serves as a primary hallmark of apoptosis. Therefore, we evaluated this induction with a luminescence‐based caspase‐3 activity assay on A2780wt cells.
The caspase‐3 assay was performed to investigate the induction of apoptosis by the compounds. It was performed by employing the commercially available ApoTox‐Glo Triplex Assay (Promega Corporation, Madison, USA), which specifically correlates cell viability and toxicity to apoptosis. In brief, A2780wt and A2780cis cells, respectively, were seeded at a density of 8 × 10^3 cells per well into an opaque‐walled 96‐well plate with solid bottoms. […] After incubation, 20 µL of the provided viability/toxicity reagent was added and incubated for further 30 min on an orbital shaker at 37°C. […] Then, 100 µL of Caspase‐Glo 3/7 reagent was added, gently shaken for 30 s and further incubated for 30 min. The caspase activation was determined via the measurement of the luminescence. Analysis was performed on the BioTek Synergy H1 (Agilent Technologies, Santa Clara, USA).

A2780cis cells [5] = assay: ATP luminescence assay, A2780cis; type: cell-based; conditions: w/o BGs, 25 µM, 24 h
Source text: As a second potential mode of cell death, ICD has been investigated. Thus, two hallmarks of ICD, namely release of adenosine triphosphate (ATP) and calreticulin translocation to the plasma membrane have been analyzed in detail. Given that some platinum complexes, including the clinically used drug oxaliplatin [27], as well as BGs, are known inducers of ICD, we investigated the potential of BGs loaded with platinum(II)‐NHC complexes to trigger this process. […] Untreated cells (without compound and without BGs) were tested as negative controls.
The ATP assay was performed by employing the commercially available ATPlite Luminescence Assay System 96‐well (revvity, Massachusetts, USA). In brief, A2780wt and A2780cis cells, respectively, were seeded at a density of 8 × 10^3 cells per well into an opaque‐walled 96‐well plate with solid bottoms. […] After incubation, 50 µL of the provided mammalian cell lysis solution was added and incubated for further 5 min on an orbital shaker at 700 rpm. Then, 50 µL of a provided substrate solution was added and again incubated for 5 min on an orbital shaker at 700 rpm. The plate was allowed to dark adapt for 10 min and then the luminescence was measured. Analysis was performed on the BioTek Synergy H1.

[6] = system: surface calreticulin on A2780wt cells; assay: Immunofluorescent surface calreticulin staining, A2780wt; type: cell-based; conditions: w/o BGs, 25 µM, 24 h
Method: Oxaliplatin, a known metal‐based ICD inducer, was included for comparison.
A2780wt or A2780cis cells were seeded at a density of 1.2 × 10^5 on cover slips and allowed to adhere for 24 h. […] Subsequently, the cells were washed again three times with PBS and they were incubated after adding the secondary antibody (Alexa‐Fluor‐conjugated anti‐rabbit, 1:200), for 45 min at rt. Subsequently, the cells were washed again three times with PBS and they were mounted on slides with mounting medium. After letting them dry overnight, visualization was performed by spinning disk confocal microscopy. […] Acquired images were background subtracted, individual cells were manually segmented, and fluorescence intensity for the calreticulin staining was quantified with a FIJI software. Two repetitions of the experiment were performed, where at least 20 cells per condition were analyzed and the mean intensity of each sample was calculated, respectively.

Compound	IC50 (A2780wt cells) [µM]	metabolic activity of A2780wt cells (A2780wt cells; free (non‐loaded) compound, 25 µM, 72 h) [%]	Resistance factor RF = IC50(A2780cis)/IC50(A2780wt) (A2780cis cells [1])	IC50 (A2780cis cells [1]) [µM]	behaviour in D2O (aquation) [2]	complex that had released its acetates ([2]; within 5 min of dissolution)	concentration remaining in RPMI 1640 [3]	x-fold caspase-3 induction compared to untreated cells [4] [x-fold]	ATP concentration (A2780cis cells [5]) [µM]	x‐fold intensity of surface calreticulin compared to untreated cells [6] [x‐fold]
CCN1[C]([Pt]([O]C(C)=O)([O]C(C)=O)[SH](C)(C)=O)N(CC)c2ccccc21 [Compound 1, (SP‐4‐2)‐Diacetato(1,3‐diethylbenzimidazol‐2‐ylidene)(dimethylsulfoxide)platinum(II)]	31.1 ± 2.39	85	1.2	36.5 ± 2.85	No significant spectral changes were observed during incubation for 24 h at rt	over 70%	approximately 37%	2.64 ± 0.32	0.23 ± 0.05	1.09 ± 0.00
CCN1[C]([Pt]([O]C(=O)C(Cl)Cl)([O]C(=O)C(Cl)Cl)[SH](C)(C)=O)N(CC)c2ccccc21 [Compound 3, (SP‐4‐2)‐Bis(dichloroacetato)(1,3‐diethylbenzimidazol‐2‐ylidene)(dimethylsulfoxide)platinum(II)]	58.9 ± 2.05			83.1 ± 4.79				3.06 ± 1.20	0.28 ± 0.04	1.50 ± 0.17
(SP‐4‐2)‐Bis(dichloroacetato)bis(1,3‐diethylbenzimidazol‐2‐ylidene)platinum(II) [Compound 4]	37.9 ± 1.58		0.9	34.9 ± 1.7				1.89 ± 0.03	0.10 ± 0.03	1.37 ± 0.24
(SP‐4‐2)‐Diacetatobis(1,3‐diethylbenzimidazol‐2‐ylidene)platinum(II) [Compound 2]	40.8 ± 2.34		1.0	39.3 ± 2.8	fast initial aquation		~7%	0.39 ± 0.13	0.31 ± 0.04	1.07 ± 0.12
